Experiment in all cases: cell-based
The target in experiment [1] is hNav1.3 (Homo sapiens, UniProt Q9NY46). The note with it: IonWorks Quattro; Table 6; read-out: IC50 (μM) Nav1.3.
Experiment [2] addresses hNav1.5 (Homo sapiens, UniProt Q14524). The note with it: IonWorks Quattro; Table 6; read-out: IC50 (μM) Nav1.5. (In general: Patch clamp records ionic current or voltage across a cell membrane.)
Experiment [3] has as its target hNav1.4 (Homo sapiens, UniProt P35499). The class given is cell-based. To be noted: Table 6; for IC50: IonWorks Quattro, read-out: IC50 (μM) Nav1.4; for Nav1.4/Nav1.7: ratio of IonWorks Quattro IC50 values.
The target of experiment [4] is hNav1.7 (Homo sapiens, UniProt Q15858). To be noted: read-out: IC50 (μM) Nav1.7.

Data on 6 compounds can be found in patent US10344060B2 (priority 2013, dated 2019).

Bounds are passed on as bounds.

Chain of hNav1.5 (Q14524 whole entry): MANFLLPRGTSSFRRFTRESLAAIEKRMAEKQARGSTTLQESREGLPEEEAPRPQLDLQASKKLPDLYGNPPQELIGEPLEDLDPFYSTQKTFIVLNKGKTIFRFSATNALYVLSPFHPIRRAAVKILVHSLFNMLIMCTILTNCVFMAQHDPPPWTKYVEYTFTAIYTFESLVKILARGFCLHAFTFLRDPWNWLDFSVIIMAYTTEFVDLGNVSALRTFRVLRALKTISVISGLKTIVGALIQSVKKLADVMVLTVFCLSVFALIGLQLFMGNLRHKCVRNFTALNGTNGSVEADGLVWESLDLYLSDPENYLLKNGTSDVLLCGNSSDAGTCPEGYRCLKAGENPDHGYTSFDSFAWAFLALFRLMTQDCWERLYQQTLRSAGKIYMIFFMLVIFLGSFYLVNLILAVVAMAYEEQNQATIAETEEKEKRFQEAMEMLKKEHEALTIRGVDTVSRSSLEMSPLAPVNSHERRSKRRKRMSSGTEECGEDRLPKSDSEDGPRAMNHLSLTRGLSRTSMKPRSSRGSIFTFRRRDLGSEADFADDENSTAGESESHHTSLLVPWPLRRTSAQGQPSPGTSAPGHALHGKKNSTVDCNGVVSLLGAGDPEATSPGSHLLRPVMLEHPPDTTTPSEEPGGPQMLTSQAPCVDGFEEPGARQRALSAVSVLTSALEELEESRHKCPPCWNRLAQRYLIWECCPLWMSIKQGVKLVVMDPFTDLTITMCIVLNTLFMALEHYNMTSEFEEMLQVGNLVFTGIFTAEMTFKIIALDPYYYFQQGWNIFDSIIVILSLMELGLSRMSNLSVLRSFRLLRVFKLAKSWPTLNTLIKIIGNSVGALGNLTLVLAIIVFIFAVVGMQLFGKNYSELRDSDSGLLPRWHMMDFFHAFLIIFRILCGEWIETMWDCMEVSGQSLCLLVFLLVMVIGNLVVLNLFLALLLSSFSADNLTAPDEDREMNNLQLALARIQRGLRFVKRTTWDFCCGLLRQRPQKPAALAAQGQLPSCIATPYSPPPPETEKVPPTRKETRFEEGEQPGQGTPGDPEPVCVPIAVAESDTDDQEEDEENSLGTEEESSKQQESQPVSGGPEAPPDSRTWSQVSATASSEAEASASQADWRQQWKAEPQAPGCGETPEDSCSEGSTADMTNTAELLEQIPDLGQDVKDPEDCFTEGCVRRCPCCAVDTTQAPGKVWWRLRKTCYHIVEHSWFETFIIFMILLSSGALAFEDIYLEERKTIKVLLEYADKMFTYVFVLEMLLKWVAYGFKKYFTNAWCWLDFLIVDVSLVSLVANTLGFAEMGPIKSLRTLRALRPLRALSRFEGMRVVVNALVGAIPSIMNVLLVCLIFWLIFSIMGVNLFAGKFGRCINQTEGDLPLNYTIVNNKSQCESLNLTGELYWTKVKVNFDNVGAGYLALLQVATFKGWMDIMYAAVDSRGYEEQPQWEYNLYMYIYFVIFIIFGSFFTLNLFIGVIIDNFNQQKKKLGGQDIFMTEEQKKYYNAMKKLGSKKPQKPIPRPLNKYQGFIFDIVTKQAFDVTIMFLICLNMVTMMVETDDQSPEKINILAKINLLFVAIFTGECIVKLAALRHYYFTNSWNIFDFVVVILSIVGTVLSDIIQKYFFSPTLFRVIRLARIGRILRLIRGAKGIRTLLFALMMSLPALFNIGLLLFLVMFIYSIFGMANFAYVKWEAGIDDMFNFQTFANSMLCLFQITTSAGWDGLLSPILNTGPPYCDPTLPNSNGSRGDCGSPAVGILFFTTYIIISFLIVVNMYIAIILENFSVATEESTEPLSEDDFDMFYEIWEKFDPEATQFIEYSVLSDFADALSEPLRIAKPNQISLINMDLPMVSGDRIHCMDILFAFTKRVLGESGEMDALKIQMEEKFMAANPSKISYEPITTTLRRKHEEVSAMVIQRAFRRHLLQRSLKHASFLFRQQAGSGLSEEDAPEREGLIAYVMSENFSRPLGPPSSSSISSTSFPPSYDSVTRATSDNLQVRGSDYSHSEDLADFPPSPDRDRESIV
Chain of hNav1.7 (Q15858 whole entry): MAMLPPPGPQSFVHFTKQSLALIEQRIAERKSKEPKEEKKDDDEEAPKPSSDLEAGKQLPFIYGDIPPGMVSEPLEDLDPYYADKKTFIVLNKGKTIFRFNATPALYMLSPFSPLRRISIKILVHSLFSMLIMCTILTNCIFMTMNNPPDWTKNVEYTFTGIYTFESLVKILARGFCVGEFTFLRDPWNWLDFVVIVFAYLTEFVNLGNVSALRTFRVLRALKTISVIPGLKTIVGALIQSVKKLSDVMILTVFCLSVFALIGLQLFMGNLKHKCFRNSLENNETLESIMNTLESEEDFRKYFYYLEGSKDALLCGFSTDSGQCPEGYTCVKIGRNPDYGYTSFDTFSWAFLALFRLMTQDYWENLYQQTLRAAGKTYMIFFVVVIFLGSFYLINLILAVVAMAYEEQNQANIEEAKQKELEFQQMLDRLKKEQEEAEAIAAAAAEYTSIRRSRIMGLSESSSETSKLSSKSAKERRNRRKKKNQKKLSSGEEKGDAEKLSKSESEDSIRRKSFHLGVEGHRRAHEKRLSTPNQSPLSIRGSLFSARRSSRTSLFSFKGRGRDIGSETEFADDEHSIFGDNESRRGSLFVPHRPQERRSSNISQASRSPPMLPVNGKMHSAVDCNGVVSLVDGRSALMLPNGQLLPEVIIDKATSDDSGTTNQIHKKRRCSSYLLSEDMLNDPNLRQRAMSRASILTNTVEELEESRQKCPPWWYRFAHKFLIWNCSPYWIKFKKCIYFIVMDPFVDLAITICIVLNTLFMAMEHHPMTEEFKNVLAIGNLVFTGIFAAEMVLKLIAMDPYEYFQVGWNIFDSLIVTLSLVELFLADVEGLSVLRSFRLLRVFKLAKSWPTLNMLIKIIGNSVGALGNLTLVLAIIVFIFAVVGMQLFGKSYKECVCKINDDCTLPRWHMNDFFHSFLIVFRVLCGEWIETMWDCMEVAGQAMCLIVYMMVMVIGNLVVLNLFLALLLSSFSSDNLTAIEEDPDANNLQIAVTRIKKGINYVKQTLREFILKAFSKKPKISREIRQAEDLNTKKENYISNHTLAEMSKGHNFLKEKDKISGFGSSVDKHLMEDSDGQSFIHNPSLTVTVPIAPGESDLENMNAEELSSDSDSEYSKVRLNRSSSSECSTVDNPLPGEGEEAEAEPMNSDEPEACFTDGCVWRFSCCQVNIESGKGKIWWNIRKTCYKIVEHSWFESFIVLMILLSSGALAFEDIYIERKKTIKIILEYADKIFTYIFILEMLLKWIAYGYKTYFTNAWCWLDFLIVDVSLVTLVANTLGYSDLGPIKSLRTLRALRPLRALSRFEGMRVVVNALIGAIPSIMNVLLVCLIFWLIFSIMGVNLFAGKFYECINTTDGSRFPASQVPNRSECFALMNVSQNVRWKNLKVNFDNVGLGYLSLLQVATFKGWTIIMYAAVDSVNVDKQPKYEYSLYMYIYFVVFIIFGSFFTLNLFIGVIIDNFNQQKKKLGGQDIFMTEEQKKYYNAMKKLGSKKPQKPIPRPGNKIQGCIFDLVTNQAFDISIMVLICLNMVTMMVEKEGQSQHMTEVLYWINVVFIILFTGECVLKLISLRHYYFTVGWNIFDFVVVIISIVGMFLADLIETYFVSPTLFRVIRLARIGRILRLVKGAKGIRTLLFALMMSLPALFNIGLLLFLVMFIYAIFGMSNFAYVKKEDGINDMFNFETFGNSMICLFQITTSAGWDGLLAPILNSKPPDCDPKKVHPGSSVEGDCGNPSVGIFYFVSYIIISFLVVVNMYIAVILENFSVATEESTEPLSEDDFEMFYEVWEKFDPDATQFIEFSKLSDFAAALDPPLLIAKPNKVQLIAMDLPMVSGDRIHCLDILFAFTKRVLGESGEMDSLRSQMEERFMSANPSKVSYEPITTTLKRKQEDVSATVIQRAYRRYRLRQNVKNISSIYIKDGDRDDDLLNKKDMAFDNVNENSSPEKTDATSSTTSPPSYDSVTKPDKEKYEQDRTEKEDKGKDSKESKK

In the case of `CC[C@H](C)[C@H](NC(=O)[C@H](Cc1cccc2ccccc12)NC(=O)[C@H](CCCCN)NC(=O)[C@H](CCCNC(=N)N)NC(=O)[C@@H]1CSSC[C@@H]2NC(=O)[C@H](C)NC(=O)[C@H](CCCNC(=N)N)NC(=O)[C@H](CCCCN)NC(=O)[C@H](CO)NC(=O)[C@H](CC(=O)O)NC(=O)[C@@H]3CSSC[C@H](NC(=O)[C@H](CCCNC(=N)N)NC(=O)[C@H](CC(C)C)NC(=O)CNC(=O)[C@H](CCC(=O)O)NC(=O)[C@H](CSSC[C@H](NC(=O)[C@@H](N)Cc4ccc(O)cc4)C(=O)N[C@@H](CCC(N)=O)C(=O)N[C@@H](CCCCN)C(=O)N[C@@H](Cc4c[nH]c5ccccc45)C(=O)N[C@@H](CCSC)C(=O)N[C@@H](Cc4c[nH]c5ccccc45)C(=O)N[C@@H]([C@@H](C)O)C(=O)N3)NC2=O)C(=O)N[C@@H](CCCCN)C(=O)N[C@@H](CC(C)C)C(=O)N[C@@H](Cc2c[nH]c3ccccc23)C(=O)N1)C(N)=O` [compound 46], the concentration for half-maximal inhibition (IC50) – broadly, the concentration that inhibits the measured activity by half – in experiment [1] amounted to 0.06 µM; in experiment [2] it was 3.6 µM; in experiment [3], 0.1 µM; in experiment [4], 0.006 µM. The Nav1.4/Nav1.7 in experiment [3] amounted to 17.
The matching figures for `CC[C@H](C)[C@H](NC(=O)[C@@H](NC(=O)[C@H](CCCCN)NC(=O)[C@H](CCCNC(=N)N)NC(=O)[C@@H]1CSSC[C@@H]2NC(=O)[C@H](C)NC(=O)[C@H](CCCNC(=N)N)NC(=O)[C@H](CCCCN)NC(=O)[C@H](CO)NC(=O)[C@H](CC(=O)O)NC(=O)[C@@H]3CSSC[C@H](NC(=O)[C@H](CCCNC(=N)N)NC(=O)[C@H](CC(C)C)NC(=O)CNC(=O)[C@H](CCC(=O)O)NC(=O)[C@H](CSSC[C@H](NC(=O)[C@@H](N)CCCCN)C(=O)N[C@@H](CCC(N)=O)C(=O)N[C@@H](CCCCN)C(=O)N[C@@H](Cc4c[nH]c5ccccc45)C(=O)N[C@@H](CCSC)C(=O)N[C@@H](Cc4c[nH]c5ccccc45)C(=O)N[C@@H]([C@@H](C)O)C(=O)N3)NC2=O)C(=O)N[C@@H](CCCCN)C(=O)N[C@@H](CC(C)C)C(=O)N[C@@H](Cc2c[nH]c3ccccc23)C(=O)N1)[C@@H](C)CC)C(N)=O` [compound 71]: 0.05 µM, 2.3 µM, 0.06 µM, 0.005 µM and 12.
For `CC[C@H](C)[C@H](NC(=O)[C@@H](NC(=O)[C@H](CCCCN)NC(=O)[C@H](CCCNC(=N)N)NC(=O)[C@@H]1CSSC[C@@H]2NC(=O)[C@H](C)NC(=O)[C@H](CCCNC(=N)N)NC(=O)[C@H](CCCCN)NC(=O)[C@H](CO)NC(=O)[C@H](CC(=O)O)NC(=O)[C@@H]3CSSC[C@H](NC(=O)[C@H](CCCNC(=N)N)NC(=O)[C@H](CC(C)C)NC(=O)CNC(=O)[C@H](CCC(=O)O)NC(=O)[C@H](CSSC[C@H](NC(=O)[C@@H](N)Cc4ccc(O)cc4)C(=O)N[C@@H](CCC(N)=O)C(=O)N[C@@H](CCCCN)C(=O)N[C@@H](Cc4c[nH]c5ccccc45)C(=O)N[C@@H](CCSC)C(=O)N[C@@H](CCCCN)C(=O)N[C@@H]([C@@H](C)O)C(=O)N3)NC2=O)C(=O)N[C@@H](CCCCN)C(=O)N[C@@H](CC(C)C)C(=O)N[C@@H](Cc2c[nH]c3ccccc23)C(=O)N1)[C@@H](C)CC)C(N)=O` [compound 75] the same measures were 0.31 µM, above 5 µM, 0.43 µM, 0.08 µM and 5.
For `CC[C@H](C)[C@H](NC(=O)[C@@H](NC(=O)[C@H](CCCCN)NC(=O)[C@H](CCCNC(=N)N)NC(=O)[C@@H]1CSSC[C@@H]2NC(=O)[C@H](C)NC(=O)[C@H](CCCNC(=N)N)NC(=O)[C@H](CCCCN)NC(=O)[C@H](CO)NC(=O)[C@H](CC(=O)O)NC(=O)[C@@H]3CSSC[C@H](NC(=O)[C@H](CCCNC(=N)N)NC(=O)[C@H](CC(C)C)NC(=O)CNC(=O)[C@H](CCC(=O)O)NC(=O)[C@H](CSSC[C@H](NC(=O)[C@@H](N)Cc4ccc(O)cc4)C(=O)N[C@@H](CCC(N)=O)C(=O)N[C@@H](CCCCN)C(=O)N[C@@H](Cc4c[nH]c5ccccc45)C(=O)N[C@@H](CCSC)C(=O)N[C@@H](Cc4c[nH]c5ccccc45)C(=O)N[C@@H](CCCCN)C(=O)N3)NC2=O)C(=O)N[C@@H](CCCCN)C(=O)N[C@@H](CC(C)C)C(=O)N[C@@H](Cc2c[nH]c3ccccc23)C(=O)N1)[C@@H](C)CC)C(N)=O` [compound 76] the same measures were 0.1 µM, 3.7 µM, 0.1 µM, 0.031 µM and 3.
For the compound `CC[C@H](C)[C@H](NC(=O)[C@@H](NC(=O)[C@H](CCCCN)NC(=O)[C@H](CCCNC(=N)N)NC(=O)[C@@H]1CSSC[C@@H]2NC(=O)[C@H](C)NC(=O)[C@H](CCCNC(=N)N)NC(=O)[C@H](CCCCN)NC(=O)[C@H](CCCCN)NC(=O)[C@H](CC(=O)O)NC(=O)[C@@H]3CSSC[C@H](NC(=O)[C@H](CCCNC(=N)N)NC(=O)[C@H](CC(C)C)NC(=O)CNC(=O)[C@H](CCC(=O)O)NC(=O)[C@H](CSSC[C@H](NC(=O)[C@@H](N)Cc4ccc(O)cc4)C(=O)N[C@@H](CCC(N)=O)C(=O)N[C@@H](CCCCN)C(=O)N[C@@H](Cc4c[nH]c5ccccc45)C(=O)N[C@@H](CCSC)C(=O)N[C@@H](Cc4c[nH]c5ccccc45)C(=O)N[C@@H]([C@@H](C)O)C(=O)N3)NC2=O)C(=O)N[C@@H](CCCCN)C(=O)N[C@@H](CC(C)C)C(=O)N[C@@H](Cc2c[nH]c3ccccc23)C(=O)N1)[C@@H](C)CC)C(N)=O` [compound 78], the 50% inhibitory concentration (IC50) in experiment [1] turned out to be 0.05 µM; in experiment [2], 1.1 µM; in experiment [3] it was 0.11 µM; in experiment [4], 0.008 µM. The Nav1.4/Nav1.7 in experiment [3] was 13.
The matching figures for `CC[C@H](C)[C@H](NC(=O)[C@@H](NC(=O)[C@H](CCCCN)NC(=O)[C@H](CCCNC(=N)N)NC(=O)[C@@H]1CSSC[C@@H]2NC(=O)[C@H](C)NC(=O)[C@H](CCCCN)NC(=O)[C@H](CCCCN)NC(=O)[C@H](CO)NC(=O)[C@H](CC(=O)O)NC(=O)[C@@H]3CSSC[C@H](NC(=O)[C@H](CCCNC(=N)N)NC(=O)[C@H](CC(C)C)NC(=O)CNC(=O)[C@H](CCC(=O)O)NC(=O)[C@H](CSSC[C@H](NC(=O)[C@@H](N)Cc4ccc(O)cc4)C(=O)N[C@@H](CCC(N)=O)C(=O)N[C@@H](CCCCN)C(=O)N[C@@H](Cc4c[nH]c5ccccc45)C(=O)N[C@@H](CCSC)C(=O)N[C@@H](Cc4c[nH]c5ccccc45)C(=O)N[C@@H]([C@@H](C)O)C(=O)N3)NC2=O)C(=O)N[C@@H](CCCCN)C(=O)N[C@@H](CC(C)C)C(=O)N[C@@H](Cc2c[nH]c3ccccc23)C(=O)N1)[C@@H](C)CC)C(N)=O` [compound 79]: 0.12 µM, above 5 µM, 0.47 µM, 0.064 µM and 7.
